Assay results reported in patent publication US20240083853A1, “HSD17B13 INHIBITORS AND USES THEREOF” (FL2022-001, Inc., priority 2020, published 2024).

Molecular target: T1, Recombinant human HSD17B13 enzyme (Homo sapiens, UniProt Q7Z5P4)
T1 sequence (Q7Z5P4 20-300): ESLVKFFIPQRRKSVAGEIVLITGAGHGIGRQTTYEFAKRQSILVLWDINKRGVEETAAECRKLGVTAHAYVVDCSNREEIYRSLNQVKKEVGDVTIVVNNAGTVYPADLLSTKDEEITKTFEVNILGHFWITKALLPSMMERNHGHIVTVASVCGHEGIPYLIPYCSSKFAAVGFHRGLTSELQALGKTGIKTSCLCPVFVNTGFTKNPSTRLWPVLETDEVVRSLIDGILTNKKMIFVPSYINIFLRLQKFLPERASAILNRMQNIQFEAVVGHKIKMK
Test: HSD17b13 NAD(P)H-Glo biochemical assay
Conditions: 50 uM estradiol, 1 mM NAD+, NAD(P)H-Glo luminescence; read-out: HSD17β13 IC50
Summary of the method: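 Recombinant human HSD17B13 in 20 mM Tris pH7.4 with 0.002% Tween-20 and 0.02% BSA was preincubated with inhibitor for 20 minutes at RT. The reaction ran 3 hours at 37° C with 50 uM estradiol and 1 mM NAD+ (final). NADH formed was detected by NAD(P)H-Glo luminescence after 1 hour at RT.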

| IC50 [nM] | SMILES |
| --- | --- |
| 100 to 1000 | COc1cccc(-c2ccc(-n3ncc4cc(F)c(O)cc43)cc2)c1 [Compound 13.20, 5-Fluoro-1-(3′-methoxy-[1,1′-biphenyl]-4-yl)-1H-indazol-6-ol] |
| 100 to 1000 | CC1(C)CCN(c2ccc(-n3ncc4c(C(F)(F)F)c(F)c(O)cc43)cc2)CC1 [Compound 25.1, 1-(4-(4,4-Dimethylpiperidin-1-yl)phenyl)-5-fluoro-4-(trifluoromethyl)-1H-indazol-6-ol] |
| < 100 | CC(C)N1CCC(c2ccc(-n3ncc4cc(F)c(O)c(F)c43)cc2)CC1 [Compound 27.8, 5,7-Difluoro-1-(4-(1-isopropylpiperidin-4-yl)phenyl)-1H-indazol-6-ol] |
| 1000 to 30000 | CC1(C)CCN(c2ccc(N3C(=O)C(C)(C)c4cc(F)c(O)c(F)c43)cc2)CC1 [Compound 34, 1-(4-(4,4-Dimethylpiperidin-1-yl)phenyl)-5,7-difluoro-6-hydroxy-3,3-dimethylindolin-2-one] |
| < 100 | Oc1c(F)cc2cnn(-c3ccc(C4=CCCCC4)cc3)c2c1F [Compound 27.1, 5,7-Difluoro-1-(2′,3′,4′,5′-tetrahydro-[1,1′-biphenyl]-4-yl)-1H-indazol-6-ol] |
| 100 to 1000 | Oc1c(F)cc2cnn(-c3ccc(N4CCC4)cc3)c2c1F [Compound 23.12, 1-(4-(Azetidin-1-yl)phenyl)-5,7-difluoro-1H-indazol-6-ol] |
| 100 to 1000 | Oc1cccc(-c2ccc(-n3ncc4c(F)c(F)c(O)c(F)c43)cc2)c1 [Compound 15.4, 4,5,7-Trifluoro-1-(3′-hydroxy-[1,1′-biphenyl]-4-yl)-1H-indazol-6-ol] |
| < 100 | Oc1c(F)cc2cnn(-c3ccc(N4CC5(CCOCC5)C4)cc3)c2c1F [Compound 23.26, 1-(4-(7-Oxa-2-azaspiro[3.5]nonan-2-yl)phenyl)-5,7-difluoro-1H-indazol-6-ol] |
| 100 to 1000 | CC(C)S(=O)(=O)N1CCN(c2ccc(-n3ncc4cc(F)c(O)c(F)c43)cc2)CC1 [Compound 23.9, 5,7-Difluoro-1-(4-(4-(isopropylsulfonyl)piperazin-1-yl)phenyl)-1H-indazol-6-ol] |
| 100 to 1000 | [O-][S+]1CCC2(CC1)CN(c1ccc(-n3ncc4cc(F)c(O)c(F)c43)cc1)C2 [Compound 32.1, 2-(4-(5,7-Difluoro-6-hydroxy-1H-indazol-1-yl)phenyl)-7-thia-2-azaspiro[3.5]nonane 7-oxide] |
| 100 to 1000 | CC1(C)CCN(c2ccc(N3C(=O)C(=O)c4cc(F)c(O)c(F)c43)cc2)CC1 [Compound 7.2, 1-(4-(4,4-Dimethylpiperidin-1-yl)phenyl)-5,7-difluoro-6-hydroxyindoline-2,3-dione] |
| 1000 to 30000 | CS(=O)(=O)N1CCN(c2ccc(-n3nnc4cc(F)c(O)c(F)c43)nn2)CC1 [Compound 26.25, 5,7-Difluoro-1-(6-(4-(methylsulfonyl)piperazin-1-yl)pyridazin-3-yl)-1H-benzo[d][1,2,3]triazol-6-ol] |
| 100 to 1000 | CC1(C)CCN(c2ccc(-n3ncc4cc(F)c(O)c(C#N)c43)cc2)CC1 [Compound 26.10, 1-(4-(4,4-Dimethylpiperidin-1-yl)phenyl)-5-fluoro-6-hydroxy-1H-indazole-7-carbonitrile] |
| 100 to 1000 | Oc1cccc(-c2ccc(-n3ncc4cc(F)c(O)c(Cl)c43)cc2)c1 [Compound 17, 7-Chloro-5-fluoro-1-(3′-hydroxy-[1,1′-biphenyl]-4-yl)-1H-indazol-6-ol] |
| 100 to 1000 | Cc1cc(N2CCN(S(C)(=O)=O)CC2)ccc1-n1ncc2cc(F)c(O)c(F)c21 [Compound 20.2, 5,7-Difluoro-1-(2-methyl-4-(4-(methylsulfonyl)piperazin-1-yl)phenyl)-1H-indazol-6-ol] |
| < 100 | CC1(C)CCN(c2ccc(-n3c(=O)n(CO)c4cc(F)c(O)c(F)c43)cc2)CC1 [Compound 21.12, 3-(4-(4,4-Dimethylpiperidin-1-yl)phenyl)-4,6-difluoro-5-hydroxy-1-(hydroxymethyl)-1H-benzo[d]imidazol-2(3H)-one] |
| 100 to 1000 | COc1nn(-c2ccc(N3CCC(C)(C)CC3)cc2)c2c(F)c(O)c(F)cc12 [Compound 37.1, 1-(4-(4,4-Dimethylpiperidin-1-yl)phenyl)-5,7-difluoro-3-methoxy-1H-indazol-6-ol] |
| 100 to 1000 | Oc1cc2c(cnn2-c2ccc(-c3cccc(Cl)c3)cc2)cc1F [Compound 13.7, 1-(3′-Chloro-[1,1′-biphenyl]-4-yl)-5-fluoro-1H-indazol-6-ol] |
| < 100 | N#CC1CCN(c2ccc(-n3ncc4cc(F)c(O)c(F)c43)cc2)CC1 [Compound 22, 1-(4-(5,7-Difluoro-6-hydroxy-1H-indazol-1-yl)phenyl)piperidine-4-carbonitrile] |

| IC50 [nM] | SMILES |
| --- | --- |
| 1000 to 30000 | Nc1cccc(-c2ccc(-n3ncc4cc(F)c(O)cc43)cc2)c1 [Compound 13.27, 1-(3′-Amino-[1,1′-biphenyl]-4-yl)-5-fluoro-1H-indazol-6-ol] |
| 100 to 1000 | CN1CCC(c2ccc(-n3ncc4cc(F)c(O)c(F)c43)cc2)CC1 [Compound 27.10, 5,7-Difluoro-1-(4-(1-methylpiperidin-4-yl)phenyl)-1H-indazol-6-ol] |
| 1000 to 30000 | O=C(O)c1cccc(-c2ccc(-n3ncc4cc(F)c(O)cc43)cc2)c1 [Compound 13.29, 4′-(5-Fluoro-6-hydroxy-1H-indazol-1-yl)-[1,1′-biphenyl]-3-carboxylic acid] |
| < 100 | CC1(C)CCN(c2ncc(-n3ncc4cc(F)c(O)c(F)c43)cn2)CC1 [Compound 6.1, 1-(2-(4,4-Dimethylpiperidin-1-yl)pyrimidin-5-yl)-5,7-difluoro-1H-indazol-6-ol] |
| 100 to 1000 | CS(=O)(=O)c1cccc(-c2ccc(-n3ncc4cc(F)c(O)cc43)cc2)c1 [Compound 13.25, 5-Fluoro-1-(3′-(methylsulfonyl)-[1,1′-biphenyl]-4-yl)-1H-indazol-6-ol] |
| 1000 to 30000 | Oc1cccc(-c2ccc(-n3ncc4c(F)cc(O)cc43)cc2)c1 [Compound 2.8, 4-Fluoro-1-(3′-hydroxy-[1,1′-biphenyl]-4-yl)-1H-indazol-6-ol] |
| < 100 | Oc1c(F)cc2cnn(-c3ccc(-c4cccnc4)cc3)c2c1F [Compound 14.3, 5,7-Difluoro-1-(4-(pyridin-3-yl)phenyl)-1H-indazol-6-ol] |
| < 100 | CC1(C)CCN(c2cnc(-n3nnc4cc(F)c(O)c(F)c43)nc2)CC1 [Compound 26.20, 1-(5-(4,4-Dimethylpiperidin-1-yl)pyrimidin-2-yl)-5,7-difluoro-1H-benzo[d][1,2,3]triazol-6-ol] |
| < 100 | CCC1(C)CCN(c2ccc(-n3ncc4cc(F)c(O)c(F)c43)cc2)CC1 [Compound 24.5, 1-(4-(4-Ethyl-4-methylpiperidin-1-yl)phenyl)-5,7-difluoro-1H-indazol-6-ol] |
| 100 to 1000 | CS(=O)(=O)N1CCN(c2ccc(-n3ncc4c(Cl)c(F)c(O)cc43)cc2)CC1 [Compound 5.1, 4-Chloro-5-fluoro-1-(4-(4-(methylsulfonyl)piperazin-1-yl)phenyl)-1H-indazol-6-ol] |
| < 100 | C[C@H]1CN(c2ccc(-n3ncc4cc(F)c(O)c(F)c43)cc2)C[C@H](C)S1 (relative stereo) [Compound 32.5, 1-(4-(trans-2,6-Dimethylthiomorpholino)phenyl)-5,7-difluoro-1H-indazol-6-ol] |
| < 100 | C[C@H]1CN(c2ccc(-n3ncc4cc(F)c(O)c(F)c43)cc2)C[C@H](C)O1 (relative stereo) [Compound 20, 1-(4-(trans-2,6-Dimethylmorpholino)phenyl)-5,7-difluoro-1H-indazol-6-ol] |
| 100 to 1000 | Oc1c(F)cc2ncn(-c3ccc(N4CC5(CCOCC5)C4)cc3)c2c1F [Compound 20.11, 1-(4-(7-Oxa-2-azaspiro[3.5]nonan-2-yl)phenyl)-5,7-difluoro-1H-benzo[d]imidazol-6-ol] |
| 100 to 1000 | CS(=O)(=O)Nc1ccc(-c2ccc(-n3ncc4cc(F)c(O)cc43)cc2)cc1 [Compound 13.34, N-(4′-(5-Fluoro-6-hydroxy-1H-indazol-1-yl)-[1,1′-biphenyl]-4-yl)methanesulfonamide] |
| < 100 | CC1(C)CCN(c2ccc(-n3nnc4cc(F)c(O)c(F)c43)cn2)CC1 [Compound 26.11, 1-(6-(4,4-Dimethylpiperidin-1-yl)pyridin-3-yl)-5,7-difluoro-1H-benzo[d][1,2,3]triazol-6-ol] |
| 100 to 1000 | Oc1cc2c(cnn2-c2ccc(-c3ccccc3O)cc2)cc1F [Compound 13.2, 5-Fluoro-1-(2′-hydroxy-[1,1′-biphenyl]-4-yl)-1H-indazol-6-ol] |
| 100 to 1000 | Oc1cc2c(cnn2-c2ccc(-c3cccc(F)c3)cc2)cc1F [Compound 13.4, 5-Fluoro-1-(3′-fluoro-[1,1′-biphenyl]-4-yl)-1H-indazol-6-ol] |
| 1000 to 30000 | CS(=O)(=O)c1ccccc1-c1ccc(-n2ncc3cc(F)c(O)cc32)cc1 [Compound 13.24, 5-Fluoro-1-(2′-(methylsulfonyl)-[1,1′-biphenyl]-4-yl)-1H-indazol-6-ol] |
| < 100 | COC1(C)CCN(c2ccc(-n3ncc4cc(F)c(O)c(F)c43)cc2)CC1 [Compound 20.20, 5,7-Difluoro-1-(4-(4-methoxy-4-methylpiperidin-1-yl)phenyl)-1H-indazol-6-ol] |

Same assay, conditions: 3 h; at 10 uM compound; read-out: HSD17β13 % at 10 uM

| inhibition at 10 µM [%] | SMILES |
| --- | --- |
| 35 | CC1(C)CCN(c2ccc(-n3cnc4cc(F)c(O)cc43)cc2)CC1 [Compound 21.10, 1-(4-(4,4-Dimethylpiperidin-1-yl)phenyl)-5-fluoro-1H-benzo[d]imidazol-6-ol] |
